Assay results published in patent US6930203B2, “Gelling agents or thickeners” (Applied NanoSystems B.V., priority 2001, dated 2005).

Assays:
[1] = Solvent scope of N,N′-dialkylaldaramides (1%) or N,N′-dialkylpentaramides (1%): gelation/solubility behaviour in solvents; format: physicochemical; parameters: key: g = gelation; s = soluble; p = precipitates; c = crystallizes; ns = not soluble; v = viscous; g* = unstable gel, precipitates; cg = crystalline gel; settings: 1% gelling agent
Source text: It will be understood that the use of the present gelling agents or thickeners to prepare a gel or to thicken a composition is also encompassed by the invention. As is well known, gelling behavior of compounds or compositions is highly unpredictable. […] Preferably, the gelling phenomenon is thermo reversible.
Preferred examples include aromatic and nonaromatic hydrocarbons, alcohols, ethers, esters, aldehydes, alkanoic acids, epoxides, amines, halogenated hydrocarbons, silicon oils, vegetable oils, phosphoric esters, sulfoxides, water and mixtures thereof. In order to obtain a gel, the gelling agent or thickener is preferably mixed with the composition to be transformed to a gel in an amount of between 0.01 and 50 wt. %, based on the weight of the composition. In a preferred embodiment, the mixture of the gelling agent or thickener and the composition is heated to allow for an even better gel formation or thickening. Typically, the heating will involve raising the temperature of the mixture to about 30-175° C. until a clear solution is obtained. In an alternative embodiment, the gelling agent is first dissolved in a polar or apolar solvent and then added to or sprayed into a composition or solvent to be converted into a gel.
Solvent scope of N,N′-dialkylaldaramides (1%) or N,N′-dialkylpentaramides (1%) 1-24 refers to the compounds prepared in Examples 1-23)

[2] = Solubility in several solvents tested (for NMR); format: physicochemical
Protocol: Synthesis of didodecyl galactaramide. Diethyl galacterate (2.66 g, 10.0 mmol) was added to a solution of dodecylamine (3.75 g, 20.5 mmol) in EtOH (50 ml). After 72 hours stirring, the precipitate was filtered (yield 4.87 g, 8.9 mmol, 89%).
Synthesis of dicyclododecyl galactaramide. Diethyl galacterate (2.67 15 g, 10.0 mmol) was added to a solution of cyclododecylamine (3.78 g, 20.7 mmol) in EtOH (50 ml). After 48 hours stirring, the precipitate was filtered and washed with H2O and EtOH (yield 2.43 g, 4.5 mmol, 45%).

Compound	Gelation/solubility behaviour in 1,2-dichloroethane [1]	Gelation/solubility behaviour in 2-methoxyethanol ([1]; 2-methoxyethanol)	Gelation/solubility behaviour in 2-octanol [1]	Gelation/solubility behaviour in 2-propanol [1]	Gelation/solubility behaviour in Cyclohexane [1]	Gelation/solubility behaviour in Dimethylsulfoxide [1]	Gelation/solubility behaviour in Ethanol [1]	Gelation/solubility behaviour in Hexadecane [1]	Gelation/solubility behaviour in Toluene [1]	Gelation/solubility behaviour in Water [1]	Gelation/solubility behaviour in methyl benzoic acid ([1]; methyl benzoic acid)	Gelation/solubility behaviour in methyl laurate ([1]; methyl laurate)	Gelation/solubility behaviour in n-butylacetate [1]	Gelation/solubility behaviour in p-xylene [1]	Gelation/solubility behaviour in silicon oil ([1]; silicon oil)	Solubility in several solvents tested [2]
O=C(NC1CCCCCCCCCCC1)[C@@H](O)[C@H](O)[C@H](O)[C@@H](O)C(=O)NC1CCCCCCCCCCC1 [Example 17, dicyclododecyl galactaramide]	ns	ns	ns	ns	ns	ns	ns	ns	ns	ns	ns	ns	ns	ns	ns	low solubility
CCCCCCCCCCCCNC(=O)[C@@H](O)[C@H](O)[C@H](O)[C@@H](O)C(=O)NCCCCCCCCCCCC [Example 14, didodecyl galactaramide]	ns		ns	ns	ns	ns	ns	ns	ns	ns			ns	ns		low solubility
